Measurements reported in patent publication US10927105B1 (Lundbeck La Jolla Research Center, Inc., priority 2017, dated 2021).

What follows are compounds tested against MAGL (Homo sapiens (Human), UniProt Q99685) (assay: In vitro competitive activity-based protein profiling (human prefrontal cortex membrane fractions, FP-Rh probe), MAGL band). Settings: read-out: MAGL IC50 (μM) (human); human prefrontal cortex membrane fractions.
Sequence of MAGL (Q99685 whole entry): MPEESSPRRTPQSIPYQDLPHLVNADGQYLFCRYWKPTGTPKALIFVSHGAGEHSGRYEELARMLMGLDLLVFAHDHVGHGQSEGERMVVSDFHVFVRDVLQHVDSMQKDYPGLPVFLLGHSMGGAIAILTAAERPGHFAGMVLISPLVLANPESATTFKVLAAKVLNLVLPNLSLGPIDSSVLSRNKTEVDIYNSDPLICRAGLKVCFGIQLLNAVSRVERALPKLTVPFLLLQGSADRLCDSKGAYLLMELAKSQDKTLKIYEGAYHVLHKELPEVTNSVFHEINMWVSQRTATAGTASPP
Procedure: Biological Evaluation In Vitro Competitive Activity-Based Protein Profiling.
Proteomes (mouse brain membrane fraction for mouse assays; human prefrontal cortex membrane fractions for human assays) (50 mL, 1.0 mg/mL total protein concentration) were preincubated with varying concentrations of inhibitors at 37° C. After 30 min, FP-Rh (1.0 mL, 50 mM in DMSO) was added and the mixture was incubated for another 30 min at 37° C. Reactions were quenched with SDS loading buffer (15 μL-4×) and run on SDS-PAGE.

Row | SMILES | IC50
1 | O=C(O)c1ccn(C(=O)N2C[C@H]3C[C@H](Oc4cc(Cl)cc(Cl)c4)C[C@H]3C2)n1 [Example 230, 1-(trans-5-(3,5-dichlorophenoxy)-octahydrocyclopenta-[c]pyrrole-2-carbonyl)-1H-pyrazole-3-carboxylic acid] | < 0.1 µM
2 | O=C(O)c1ccn(C(=O)N2C[C@H]3C[C@H](Oc4cccc(C(F)(F)F)c4)C[C@H]3C2)n1 [Example 231, 1-(trans-5-(3-(trifluoromethyl)-phenoxy)-octahydrocyclopenta-[c]pyrrole-2-carbonyl)-1H-pyrazole-3-carboxylic acid] | < 0.1 µM
3 | O=C(O)c1ccn(C(=O)N2C[C@H]3C[C@H](Oc4cccc(C5CCCC5)c4)C[C@H]3C2)n1 [Example 232, 1-(trans-5-(3-cyclopentyl-phenoxy)-octahydrocyclopenta-[c]pyrrole-2-carbonyl)-1H-pyrazole-3-carboxylic acid] | < 0.1 µM
4 | O=C(O)c1ccn(C(=O)N2C[C@H]3C[C@H](Oc4cccc(N5CCCC5)c4)C[C@H]3C2)n1 [Example 234, 1-(trans-5-(3-(pyrrolidin-1-yl)phenoxy)-octahydrocyclopenta-[c]pyrrole-2-cathonyl)-1H-pyrazole-3-carboxylic acid] | < 0.1 µM
5 | Cc1c(COC2CCN(C(=O)n3ccc(C(=O)O)n3)CC2)cccc1C(F)(F)F [Example 235, 1-(4-((2-methyl-3-(trifluoromethyl)-benzyl)oxy)-piperidine-1-carbonyl)-1H-pyrazole-3-carboxylic acid] | < 0.1 µM
6 | Cc1ccc(COC2CCN(C(=O)n3ccc(C(=O)O)n3)CC2)cc1C(F)(F)F [Example 236, 1-(4-((4-methyl-3-(trifluoromethyl)-benzyl)oxy)-piperidine-1-carbonyl)-1H-pyrazole-3-carboxylic acid] | < 0.1 µM
7 | O=C(O)c1ccn(C(=O)N2C[C@H]3C[C@H](Oc4ccccc4-c4ccccc4)C[C@H]3C2)n1 [Example 239, 1-(trans-5-([1,1′-biphenyl]-2-yloxy)-octahydrocyclopenta-[c]pyrrole-2-carbonyl)-1H-pyrazole-3-carboxylic acid] | < 0.1 µM
8 | O=C(O)c1ccn(C(=O)N2C[C@H]3C[C@H](Oc4ccc(-c5ccccc5)cc4)C[C@H]3C2)n1 [Example 240, 1-(trans-5-([1,1′-biphenyl]-4-yloxy)-octahydrocyclopenta-[c]pyrrole-2-carbonyl)-1H-pyrazole-3-carboxylic acid] | < 0.1 µM
9 | O=C(O)c1ccn(C(=O)N2C[C@H]3C[C@H](Oc4cccc(-c5cccnc5)c4)C[C@H]3C2)n1 [Example 241, 1-(trans-5-(3-(pyridin-3-yl)phenoxy)-octahydrocyclopenta-[c]pyrrole-2-carbonyl)-1H-pyrazole-3-carboxylic acid] | < 0.1 µM
10 | O=C(O)c1ccn(C(=O)N2C[C@H]3C[C@H](Oc4cccc(-c5ccccn5)c4)C[C@H]3C2)n1 [Example 242, 1-(trans-5-(3-(pyridin-2-yl)phenoxy)-octahydrocyclopenta-[c]pyrrole-2-carbonyl)-1H-pyrazole-3-carboxylic acid] | < 0.1 µM
11 | O=C(O)c1ccn(C(=O)N2C[C@H]3C[C@H](Oc4ccccc4-c4cccnc4)C[C@H]3C2)n1 [Example 244, 1-(trans-5-(2-(pyridin-3-yl)phenoxy)-octahydrocyclopenta-[c]pyrrole-2-cathonyl)-1H-pyrazole-3-carboxylic acid] | < 0.1 µM
12 | Cc1cc(-c2ccccc2)ccc1CN1CCN(C(=O)n2ccc(C(=O)O)n2)[C@H](C)C1 [Example 245, (R)-1-(2-methyl-4-((3-methyl-[1,1′-biphenyl]-4-yl)methyl)-piperazine-1-carbonyl)-1H-pyrazole-3-carboxylic acid] | < 0.1 µM
13 | Cc1ccc(Oc2cccc(CN3CCN(C(=O)n4ccc(C(=O)O)n4)CC3)c2)cc1 [Example 251, 1-(4-(3-(p-tolyloxy)benzyl)-piperazine-1-carbonyl)-1H-pyrazole-3-carboxylic acid] | < 0.1 µM
14 | Cc1cn(C(=O)N2C[C@H]3C[C@H](OCc4cc(F)cc(Cl)c4)C[C@H]3C2)nc1C(=O)O [Example 252, 1-(trans-5-((3-chloro-5-fluorobenzyl)oxy)-octahydrocyclopenta-[c]pyrrole-2-carbonyl)-4-methyl-1H-pyrazole-3-carboxylic acid] | < 0.1 µM
15 | C[C@@H]1CN(Cc2ccc(-c3ccccc3)cc2F)CCN1C(=O)n1ccc(C(=O)O)n1 [Example 253, (R)-1-(4-((3-fluoro-[1,1′-biphenyl]-4-yl)methyl)-2-methylpiperazine-1-carbonyl)-1H-pyrazole-3-carboxylic acid] | < 0.1 µM
16 | Cc1cc(O[C@H]2C[C@@H]3CN(C(=O)n4ccc(C(=O)O)n4)C[C@@H]3C2)ccc1C(F)(F)F [Example 254, 1-(trans-5-(3-methyl-4-(trifluoromethyl)-phenoxy)-octahydrocyclopenta-[c]pyrrole-2-carbonyl)-1H-pyrazole-3-carboxylic acid] | < 0.1 µM
17 | C[C@@H]1C[C@H](N(C)Cc2cccc(C(F)(F)F)c2)CCN1C(=O)n1ccc(C(N)=O)n1 [Example 257, 1-((2R,4R)-2-methyl-4-(methyl(3-(trifluoromethyl)-benzyl)amino)-piperidine-1-carbonyl)-1H-pyrazole-3-carboxamide] | < 0.1 µM

Continued, values first:

Row | IC50 | SMILES
18 | < 0.1 µM | CN(Cc1cccc(C(F)(F)F)c1)C1(C)CCN(C(=O)n2ccc(C(N)=O)n2)CC1 [Example 258]
19 | < 0.1 µM | C[C@H]1C[C@H](N(C)Cc2cccc(C(F)(F)F)c2)CCN1C(=O)n1ccc(C(N)=O)n1 [Example 259, 1-((2S,4R)-2-methyl-4-(methyl(3-(trifluoromethyl)-benzyl)amino)-piperidine-1-carbonyl)-1H-pyrazole-3-carboxamide]
20 | < 0.1 µM | C[C@@H]1C[C@@H](N(C)Cc2cccc(C(F)(F)F)c2)CCN1C(=O)n1ccc(C(N)=O)n1 [Example 260, 1-((2R,4S)-2-methyl-4-(methyl(3-(trifluoromethyl)-benzyl)amino)-piperidine-1-carbonyl)-1H-pyrazole-3-carboxamide]
21 | < 0.1 µM | O=C(O)c1ccn(C(=O)N2C[C@H]3C[C@H](Oc4cccc(-c5nccs5)c4)C[C@H]3C2)n1 [Example 261, 1-(trans-5-(3-(thiazol-2-yl)phenoxy)-octahydrocyclopenta-[c]pyrrole-2-carbonyl)-1H-pyrazole-3-carboxylic acid]
22 | < 0.1 µM | O=C(O)c1ccn(C(=O)N2CCN(Cc3cccc(Oc4ccc(F)cn4)c3)CC2)n1 [Example 266, 1-(4-(3-((5-fluoropyridin-2-yl)oxy)benzyl)-piperazine-1-carbonyl)-1H-pyrazole-3-carboxylic acid]
23 | < 0.1 µM | O=C(O)c1ccn(C(=O)N2C[C@H]3C[C@H](Oc4ccccc4C4CCOCC4)C[C@H]3C2)n1 [Example 268, 1-(trans-5-(2-(tetrahydro-2H-pyran-4-yl)phenoxy)-octahydrocyclopenta-[c]pyrrole-2-carbonyl)-1H-pyrazole-3-carboxylic acid]
24 | < 0.1 µM | O=C(O)c1ccn(C(=O)N2CCN(Cc3cc(Cl)cc(-c4cncnc4)c3)CC2)n1 [Example 269, 1-(4-(3-chloro-5-(pyrimidin-5-yl)benzyl)-piperazine-1-carbonyl)-1H-pyrazole-3-carboxylic acid]
25 | < 0.1 µM | C[C@H]1CN(Cc2cc(Cl)cc(C(F)(F)F)c2)CCN1C(=O)n1ccc(C(N)=O)n1 [Example 271, (S)-1-(4-(3-chloro-5-(trifluoromethyl)-benzyl)-2-methylpiperazine-1-carbonyl)-1H-pyrazole-3-carboxamide]
26 | < 0.1 µM | C[C@@H]1CN(Cc2cc(Cl)cc(C(F)(F)F)c2)CCN1C(=O)n1ccc(C(N)=O)n1 [Example 272, (R)-1-(4-(3-chloro-5-(trifluoromethyl)-benzyl)-2-methylpiperazine-1-carbonyl)-1H-pyrazole-3-carboxamide]
27 | < 0.1 µM | O=C(O)c1ccn(C(=O)N2CCN(Cc3ccc(Cl)c(-c4nccs4)c3)CC2)n1 [Example 274, 1-(4-(4-chloro-3-(thiazol-2-yl)benzyl)-piperazine-1-carbonyl)-1H-pyrazole-3-carboxylic acid]
28 | < 0.1 µM | O=C(O)c1ccn(C(=O)N2CCC(OCc3cc(Cl)cc(C(F)(F)F)c3)CC2)n1 [Example 275, 1-(4-((3-chloro-5-(trifluoromethyl)-benzyl)oxy)-piperidine-1-carbonyl)-1H-pyrazole-3-carboxylic acid]
29 | < 0.1 µM | O=C(O)c1ccn(C(=O)N2CCC(OCc3ccc(Cl)c(C(F)(F)F)c3)CC2)n1 [Example 276, 1-(4-((4-chloro-3-(trifluoromethyl)-benzyl)oxy)-piperidine-1-carbonyl)-1H-pyrazole-3-carboxylic acid]
30 | < 0.1 µM | O=C(O)c1ccn(C(=O)N2C[C@H]3C[C@H](OCc4cccc(-c5ccccc5)c4)C[C@H]3C2)n1 [Example 278, 1-(trans-5-([1,1′-biphenyl]-3-ylmethoxy)-octahydrocyclopenta-[c]pyrrole-2-carbonyl)-1H-pyrazole-3-carboxylic acid]
31 | < 0.1 µM | Cc1cn(C(=O)N2C[C@H]3C[C@H](Oc4cccc(-c5ccccc5)c4)C[C@H]3C2)nc1C(=O)O [Example 280, 1-(trans-5-([1,1′-biphenyl]-3-yloxy)-octahydrocyclopenta-[c]pyrrole-2-carbonyl)-4-methyl-1H-pyrazole-3-carboxylic acid]
32 | < 0.1 µM | COc1cc(-c2ccccc2)ccc1CN1CCN(C(=O)n2ccc(C(=O)O)n2)[C@H](C)C1 [Example 283, (R)-1-(4-((3-methoxy-[1,1′-biphenyl]-4-yl)methyl)-2-methylpiperazine-1-carbonyl)-1H-pyrazole-3-carboxylic acid]
33 | < 0.1 µM | NC(=O)c1ccn(C(=O)N2CCC3(CCN(Cc4cccc(C(F)(F)F)c4)C3)CC2)n1 [Example 284, 1-(2-(3-(trifluoromethyl)-benzyl)-2,8-diazaspiro[4.5]-decane-8-carbonyl)-1H-pyrazole-3-carboxamide]
